Data from ChEMBL document CHEMBL1152085, “Novel 3-deoxy-3-descladinosyl-6-O-methyl erythromycin a analogues. Synthesis and in vitro activity” (1997).
In brackets after ≈: the same amount, converted by molar mass.

Tests used:
Format in all cases: functional
[1] = test system: Staphylococcus aureus; test: Tested in vitro for minimum inhibitory concentration to produce antibacterial activity against Staphylococcus aureus ATCC 6538P in presence of erythromycin A
[2] = test system: Staphylococcus aureus; test: Tested in vitro for minimum inhibitory concentration to produce antibacterial activity against Staphylococcus aureus NCTC-10649M
[3] = test system: Staphylococcus epidermidis; test: Tested in vitro for minimum inhibitory concentration to produce antibacterial activity against Staphylococcus epidermidis 3519 in presence of erythromycin A
[4] = test system: Staphylococcus epidermidis; test: Tested in vitro for minimum inhibitory concentration to produce antibacterial activity against Staphylococcus epidermidis 3519
[5] = test system: Streptococcus pyogenes; test: Tested in vitro for minimum inhibitory concentration to produce antibacterial activity against Streptococcus pyogenes EES61 in presence of erythromycin A
[6] = test system: Escherichia coli; test: Tested in vitro for minimum inhibitory concentration to produce antibacterial activity against Escherichia coli JUHL in presence of erythromycin A
[7] = test system: Streptococcus pyogenes; test: Tested in vitro for minimum inhibitory concentration to produce antibacterial activity against Streptococcus pyogenes EES61
[8] = test system: Enterococcus faecium; test: Tested in vitro for minimum inhibitory concentration to produce antibacterial activity against Enterococcus faecium ATCC 8043 in presence of erythromycin A
[9] = test system: Streptococcus agalactiae; test: Tested in vitro for minimum inhibitory concentration to produce antibacterial activity against Streptococcus agalactiae CMX 508
[10] = test system: Staphylococcus aureus; test: Tested in vitro for minimum inhibitory concentration to produce antibacterial activity against Staphylococcus aureus A5177
[11] = test system: Streptococcus equinus; test: Tested in vitro for minimum inhibitory concentration to produce antibacterial activity against Streptococcus bovis A-5169 in presence of erythromycin A
[12] = test system: Staphylococcus aureus; test: Tested in vitro for minimum inhibitory concentration to produce antibacterial activity against Staphylococcus aureus 1775
[13] = test system: Escherichia coli; test: Tested in vitro for minimum inhibitory concentration to produce antibacterial activity against Escherichia coli SS
[14] = test system: Staphylococcus aureus; test: Tested in vitro for minimum inhibitory concentration to produce antibacterial activity against Staphylococcus aureus CMX 642A
[15] = test system: Staphylococcus aureus; test: Tested in vitro for minimum inhibitory concentration to produce antibacterial activity against Staphylococcus aureus CMX 553
[16] = test system: Staphylococcus aureus; test: Tested in vitro for minimum inhibitory concentration to produce antibacterial activity against Staphylococcus aureus A-5278
[17] = test system: Escherichia coli; test: Tested in vitro for minimum inhibitory concentration to produce antibacterial activity against Escherichia coli JUHL
[18] = test system: Staphylococcus aureus; test: Tested in vitro for minimum inhibitory concentration to produce antibacterial activity against Staphylococcus aureus A5177 in presence of erythromycin A
[19] = test system: Staphylococcus aureus; test: Tested in vitro for minimum inhibitory concentration to produce antibacterial activity against Staphylococcus aureus 1775 in presence of erythromycin A
[20] = test system: Staphylococcus aureus; test: Tested in vitro for minimum inhibitory concentration to produce antibacterial activity against Staphylococcus aureus NCTC-10649M in presence of erythromycin A
[21] = test system: Streptococcus agalactiae; test: Tested in vitro for minimum inhibitory concentration to produce antibacterial activity against Streptococcus agalactiae CMX 508 in presence of erythromycin A
[22] = test system: Streptococcus equinus; test: Tested in vitro for minimum inhibitory concentration to produce antibacterial activity against Streptococcus bovis A-5169
[23] = test system: Staphylococcus aureus; test: Tested in vitro for minimum inhibitory concentration to produce antibacterial activity against Staphylococcus aureus CMX 553 in presence of erythromycin A
[24] = test system: Staphylococcus aureus; test: Tested in vitro for minimum inhibitory concentration to produce antibacterial activity against Staphylococcus aureus A-5278 in presence of erythromycin A
[25] = test system: Staphylococcus aureus; test: Tested in vitro for minimum inhibitory concentration to produce antibacterial activity against Staphylococcus aureus CMX 642A in presence of erythromycin A
[26] = test system: Streptococcus pyogenes; test: Tested in vitro for minimum inhibitory concentration to produce antibacterial activity against Streptococcus pyogenes PIU 2548 in presence of erythromycin A
[27] = test system: Escherichia coli; test: Tested in vitro for minimum inhibitory concentration to produce antibacterial activity against Escherichia coli SS in presence of erythromycin A
[28] = test system: Enterococcus faecium; test: Tested in vitro for minimum inhibitory concentration to produce antibacterial activity against Enterococcus faecium ATCC 8043
[29] = test system: Streptococcus pyogenes; test: Tested in vitro for minimum inhibitory concentration to produce antibacterial activity against Streptococcus pyogenes PIU 2548
[30] = test system: Staphylococcus aureus; test: Tested in vitro for minimum inhibitory concentration to produce antibacterial activity against Staphylococcus aureus ATCC 6538P
[31] = test system: Streptococcus pyogenes; test: Tested in vitro for minimum inhibitory concentration to produce antibacterial activity against Streptococcus pyogenes 930 in presence of erythromycin A
[32] = test system: Streptococcus pyogenes; test: Tested in vitro for minimum inhibitory concentration to produce antibacterial activity against Streptococcus pyogenes 930

Compound | MIC [1] [mg/L] | MIC [2] [mg/L] | MIC [3] [mg/L] | MIC [4] [mg/L] | MIC [5] [mg/L] | MIC [7] [mg/L] | MIC [8] [mg/L] | MIC [9] [mg/L] | MIC [10] [mg/L] | MIC [11] [mg/L] | MIC [12] [mg/L] | MIC [14] [mg/L] | MIC [15] [mg/L] | MIC [16] [mg/L] | MIC [18] [mg/L] | MIC [19] [mg/L] | MIC [20] [mg/L] | MIC [21] [mg/L] | MIC [22] [mg/L] | MIC [23] [mg/L] | also measured
CC[C@H]1OC(=O)[C@H](C)C[C@H](C)[C@@H](O[C@@H]2O[C@H](C)C[C@H](N(C)C)[C@H]2O)[C@](C)(OC)C[C@@H](C)C(=O)[C@H](C)[C@H]2N(CCCCc3ccccc3)C(=O)O[C@]12C | 0.39 | 1.56 (≈ 2.13 µM) | 0.39 | 1.56 (≈ 2.13 µM) | 0.02 | 0.05 (≈ 0.0684 µM) | 0.1 | 0.1 (≈ 0.137 µM) | 1.56 (≈ 2.13 µM) | 0.02 | 50 (≈ 68.4 µM) | 1.56 (≈ 2.13 µM) | 1.56 (≈ 2.13 µM) | 50 (≈ 68.4 µM) | 25 | > 100 | 0.39 | 0.02 | 0.02 (≈ 0.0274 µM) | 0.39 | MIC [6]: 100 mg/L; MIC [13]: 1.56 mg/L (≈ 2.13 µM); MIC [17]: > 100 mg/L; MIC [24]: > 100 mg/L; MIC [25]: 0.39 mg/L; MIC [26]: 6.2 mg/L; MIC [27]: 0.39 mg/L; MIC [28]: 0.39 mg/L (≈ 0.534 µM); MIC [29]: 0.2 mg/L (≈ 0.274 µM); MIC [30]: 1.56 mg/L (≈ 2.13 µM)
CC[C@H]1OC(=O)[C@H](C)C(=O)[C@H](C)[C@@H](O[C@@H]2O[C@H](C)C[C@H](N(C)C)[C@H]2O)[C@](C)(OC)C[C@@H](C)C(=O)[C@H](C)[C@@H](O)[C@]1(C)O | 0.2 | 0.1 (≈ 0.17 µM) | 0.2 | 0.39 (≈ 0.664 µM) | 0.05 | 0.1 (≈ 0.17 µM) | 0.05 | 0.2 (≈ 0.34 µM) | 0.2 (≈ 0.34 µM) | 0.02 | > 100 | 0.39 (≈ 0.664 µM) | 0.2 (≈ 0.34 µM) | > 100 | 1.56 | > 100 | 0.2 | 0.05 | 0.05 (≈ 0.0851 µM) | 0.2 | MIC [6]: 50 mg/L; MIC [13]: 0.39 mg/L (≈ 0.664 µM); MIC [17]: > 100 mg/L; MIC [31]: > 100 mg/L; MIC [24]: > 100 mg/L; MIC [25]: 0.2 mg/L; MIC [32]: > 100 mg/L; MIC [26]: 3.1 mg/L; MIC [27]: 0.2 mg/L; MIC [28]: 0.2 mg/L (≈ 0.34 µM); MIC [29]: 0.3 mg/L (≈ 0.51 µM); MIC [30]: 0.2 mg/L (≈ 0.34 µM)
CC[C@H]1OC(=O)[C@H](C)C[C@H](C)[C@@H](O[C@@H]2O[C@H](C)C[C@H](N(C)C)[C@H]2O)[C@](C)(OC)C[C@@H](C)C(=O)[C@H](C)[C@H]2N(CCc3ccc(Oc4ccccc4)cc3)C(=O)O[C@]12C | 0.39 | 6.2 (≈ 7.8 µM) | 0.39 | 12.5 (≈ 15.7 µM) | 0.02 | 1.56 (≈ 1.96 µM) | 0.05 | 1.56 (≈ 1.96 µM) | 6.2 (≈ 7.8 µM) | 0.05 | 25 (≈ 31.4 µM) | 12.5 (≈ 15.7 µM) | 6.2 (≈ 7.8 µM) | 25 (≈ 31.4 µM) | 12.5 | > 100 | 0.39 | 0.05 | 1.56 (≈ 1.96 µM) | 0.39 | MIC [31]: > 100 mg/L; MIC [24]: > 100 mg/L; MIC [25]: 0.39 mg/L; MIC [32]: 6.2 mg/L (≈ 7.8 µM); MIC [26]: 6.2 mg/L; MIC [28]: 1.56 mg/L (≈ 1.96 µM); MIC [29]: 3.1 mg/L (≈ 3.9 µM); MIC [30]: 12.5 mg/L (≈ 15.7 µM)
